Measured values from US9439897B2, “Use of psoralen derivatives and combination therapy for treatment of cell proliferation disorders” (IMMUNOLIGHT, LLC, priority 2014, dated 2016).

Columns and labels:
[1] = test system: ErbB2+ breast cancer cell lines (BT474; SKBR3); assay: Cell growth and viability assay (WST-1); format: cell-based, human
Protocol: (§1) UV irradiation was carried out in 6 or 96 well plate format in a UV Stratalinker 1800 (Statagene, LA Jolla, Calif.) at the UV doses indicated in the figures. Cell growth and viability assays were performed in a 96-well plate format in a final volume of 100 μl/well using the cell proliferation reagent WST-1 from Roche Diagnostics (Mannheim, Germany), as previously described. Details of the apoptosis assay have been previously described. Briefly, cells were treated in 12-well plates with 8MOP, UV irradiation, or lapatinib at the treatment conditions indicated in the Figure legends. Cells were harvested with trypsin-EDTA, and 5000 cells in final volume of 50 μl were sampled in 96-well microplates. Cells were directly stained with annexin V-PE and nexin 7-AAD in 1× Nexin Buffer in a 200 μl final reaction volume. After incubating at room temperature for 20 min, the reaction samples were analyzed in the Guava PCA-96-system (Guava Technology Inc. Hayward, Calif.).

ErbB2 = assay: Western blot analysis of ErbB2 signaling in ErbB2+ breast cancer cells; format: cell-based, human
Protocol: (§2) Whole cell extracts were prepared by scraping cells off petri dishes, washing cell pellets 2× in phosphate buffered saline (PBS), and then re-suspending pellets in two-packed-cell volumes of RIPA buffer (150 mM NaCl, 50 mM Tris-HCl, pH 7.5, 0.25% (w/v) deoxycholate, 1% NP-40, 5 mM sodium orthovanadate, 2 mM sodium fluoride, and a protease inhibitor cocktail). Protein concentrations were determined using a modification of the Bradford method (Bio-Rad Labs, Hercules, Calif.). For Western blot analysis, equal amounts of proteins (25 to 50 μg) were resolved by either 7.5% or 4-15% gradient SDS polyacrylamide gel electrophoresis under reducing conditions as previously described. Proteins were transferred to nitrocellulose membranes and probed with primary antibodies specific for proteins of interest. After extensive washing, membranes were incubated with a secondary IRDye 800 conjugated anti-rabbit or mouse IgG, or Alexa Fluor 680 anti-rabbit IgG and proteins were visualized using the LI-COR Odyssey Infrared Imaging System (LI-COR, Inc., Lincoln, Nebr.).

MCF7 cells = assay: Cell growth and viability assay (WST-1); format: cell-based, human; conditions: PUVA, 2.5 and 5 μM 8MOP; compared with ErbB2+ lines
Protocol: as §1

[2] = test system: human foreskin fibroblast cell line (HFF); assay: Cell growth and viability assay (WST-1); format: cell-based; conditions: PUVA, 2.5 and 5 μM 8MOP; compared with ErbB2+ lines
Protocol: as §1

[3] = test system: ErbB2+ breast cancer cells (BT474; SKBR3); assay: Apoptosis assay (annexin V-PE / 7-AAD); format: cell-based, human
Protocol: as §1

rBT474 and rSKBR3 cells = assay: Cell growth and viability assay in lapatinib resistant cells; format: cell-based, human; conditions: PUVA; cells maintained in 1 μM lapatinib; dose-dependent
Source text: ErbB2+(BT474; SKBR3) and ErbB2 negative (MCF-7; T47D) human breast cancer cell lines, and the human foreskin fibroblast (HFF) cell line were obtained from the American Type Culture Collection (Manassas, Va.). Lapatinib resistant breast cancer cells (rBT474; rSKBR3) were generated and maintained in culture as previously described. Cells were maintained in RPMI-1640 supplemented with 10% fetal bovine serum and L-glutamine from GIBCO (Grand Island, N.Y.) growing in a humidified atmosphere of 5% CO2 at 37° C. IRDye 800 conjugated affinity purified anti-rabbit IgG and anti-mouse IgG were from Rockland (Gilbertsville, Pa.). Alexa Fluor 680 goat anti-rabbit IgG were purchased from Molecular Probes (Eugene, Oreg.). Anti-PARP (Poly (ADP-ribose) Polymerase) monoclonal antibody was from BD PharMingen (San Jose, Calif.). 8-Methoxypsoralen (8MOP) and the 4G10 anti-phosphotyrosine (p-tyr) antibody were purchased from Sigma-Aldrich (St. Louis, Mo.). Monoclonal antibodies to c-ErbB2 and EGFR were purchased from Neo Markers (Union City, Calif.). […]
UV irradiation was carried out in 6 or 96 well plate format in a UV Stratalinker 1800 (Statagene, LA Jolla, Calif.) at the UV doses indicated in the figures. […] After incubating at room temperature for 20 min, the reaction samples were analyzed in the Guava PCA-96-system (Guava Technology Inc. Hayward, Calif.).

[4] = test system: EGFR, ErbB3, Akt, PARP in rBT474 and rSKBR3; assay: Western blot analysis in lapatinib resistant cells; format: cell-based, human
Protocol: as §2

T47D cells = assay: Growth and apoptosis in T47D and p85ErbB2 transfected T47D cells; format: cell-based, human
Protocol: as §1
(§3) The c-terminal fragment (p85^ErbB2) was generated based on ErbB2 open reading frames and sub-cloned into the pcDNA 3.1 (+) as previously described. HER2 negative T47D breast cancer cells were transfected with the p85 expressing vector using the Lipofectamine™ 2000 Reagent from Invitrogen (Carlsbad, Calif.) as previously described. […]

p85^ErbB2 = assay: Western blot of phospho-p85ErbB2 in stably transfected T47D cells; format: cell-based, human; conditions: p85 expressing T47D cells; 5 μM lapatinib or 5 μM 8MOP 4 hr, then UV irradiation
Protocol: as §2, §3

## Cc1c2occc2cc2c1oc(=O)c1cnccc12 [7-methylpyridopsoralen]
[1]; upon photo-activation (UVA irradiation), 72 hr, BT474 and SKBR3
  growth and viability of ErbB2+ breast cancer cells: significantly inhibited
ErbB2; upon photo-activation (UVA irradiation)
  phosphorylated and total ErbB2 protein expression: inhibition

## COc1c2occc2cc2ccc(=O)oc12 [8MOP, 8-Methoxypsoralen]
[1]; 8MOP alone, no UV irradiation
  cell viability: relatively little effect
[1]; PUVA: 8MOP 4 hr pre-treatment, UVA irradiation (2J), 72 hr, dose-dependent
  growth and viability of ErbB2+ breast cancer cell lines: significantly inhibited
MCF7 cells
  growth and viability of MCF7 cells: relatively less effect
[2]
  growth and viability of HFF cells: relatively less effect
[3]; PUVA: 8MOP + UVA irradiation (2J), 72 hr
  apoptosis: induction of apoptosis
ErbB2; 8MOP alone, no UV irradiation
  ErbB2 signaling: relatively little effect
ErbB2; PUVA (8MOP + UVA)
  phosphorylated forms of Akt and Erk1/2: inhibited
ErbB2; PUVA (8MOP + UVA), dose-dependent
  steady-state protein levels of phosphorylated ErbB2: reduced
ErbB2; higher doses of PUVA therapy
  total ErbB2 protein levels: reduced
rBT474 and rSKBR3 cells
  tumor cell growth and viability: significantly reduced
[4]; PUVA-treated lapatinib resistant tumor cells
  PARP cleavage product: increased
[4]; PUVA-treated rBT474 and rSKBR3
  expression of phosphorylated EGFR (Y992), ErbB3 (Y1197) and Akt (T308): reduction
  total EGFR and ErbB3 protein expression: markedly reduced
T47D cells; T47D cells transfected with empty vector alone
  antitumor effect (growth): antitumor effect
T47D cells; p85 expressing T47D cells
  tumor cell apoptosis: triggering tumor cell apoptosis
p85^ErbB2
  p85ErbB2 phosphorylation: markedly inhibited

## CS(=O)(=O)CCNCc1ccc(-c2ccc3ncnc(Nc4ccc(OCc5cccc(F)c5)c(Cl)c4)c3c2)o1 [lapatinib]
p85^ErbB2
  p85ErbB2 phosphorylation: not inhibited

## CCOc1cc2ncc(C#N)c(Nc3ccc(OCc4ccccn4)c(Cl)c3)c2cc1NC(=O)/C=C/CN(C)C [neratinib]
[1]; combination of 8-MOP, UVA irradiation and neratinib, each at sub-lethal doses
  cell viability: significantly enhanced inhibition
[3]; neratinib at sub-lethal doses combined with PUVA
  apoptosis in ErbB2+ breast cancer cells: significantly increased
ErbB2; neratinib in combination with UVA irradiation alone, more pronounced in SKBR3
  total ErbB2 and ErbB3 protein expression: further loss
ErbB2; neratinib treatment alone
  p-Akt (S473) expression: loss
  total ErbB2 and ErbB3 protein levels: marked reduction
